From US7749996B2, “Heterotricyclic metalloprotease inhibitors” (Alantos Pharmaceutical Holdings, Inc., priority 2006, dated 2010)

Assays:
Type in all cases: biochemical
activated MMP-8 enzyme = molecular target: T1, activated MMP-8 enzyme (Homo sapiens, UniProt P22894); assay: Assay for determining MMP-8 inhibition (fluorescent substrate); conditions: Table 2, activity group
T1 construct: purchased Calbiochem 444229
Description: (§1) The typical assay for MMP-8 activity is carried out in assay buffer comprised of 50 mM Tris, pH 7.5, 150 mM NaCl, 5 mM CaCl2 and 0.05% Brij-35. Different concentrations of tested compounds are prepared in assay buffer in 50 μL aliquots. […] The mixture of enzyme and compound in assay buffer is thoroughly mixed and incubated for 10 min at 37° C. […] The time-dependent increase in fluorescence is measured at the 320 nm excitation and 390 nm emission by an automatic plate multireader at 37° C. The IC50 values are calculated from the initial reaction rates.

[1] = molecular target: T2, catalytic domain of MMP-13 enzyme (Homo sapiens, UniProt P45452); assay: Assay for determining MMP-13 inhibition (fluorescent substrate); conditions: Table 1, activity group
T2 construct: stock solution of catalytic domain of MMP-13 enzyme (produced by Alantos or commercially available from Invitek (Berlin), Cat.# 30100812); purchased Invitek (Berlin) 30100812
Description: as §1, with “MMP-13” for “MMP-8”, “room temperature.” for “37° C.”, “by” for “by an”, “multireader.” for “multireader at 37° C.”

[2] = molecular target: T3, catalytic domain of MMP-3 enzyme (Homo sapiens, UniProt P08254); assay: Assay for determining MMP-3 inhibition (NFF-3 fluorescent substrate); conditions: Table 3, activity group
T3 construct: stock solution of the catalytic domain of MMP-3 enzyme (Biomol, Cat. No. SE-109); purchased Biomol SE-109
T3 sequence (P08254 100-272 limits assumed): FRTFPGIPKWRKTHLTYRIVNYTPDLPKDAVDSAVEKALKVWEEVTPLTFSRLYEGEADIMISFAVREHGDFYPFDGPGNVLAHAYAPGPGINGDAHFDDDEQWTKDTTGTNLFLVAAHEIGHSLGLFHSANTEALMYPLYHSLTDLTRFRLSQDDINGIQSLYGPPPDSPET
Description: as §1, with “MMP-3” for “MMP-8”, “MES,” for “Tris,”, “6.0, 10” for “7.5, 150 mM NaCl, 5”, “room temperature.” for “37° C.”, “330” for “320”, “multireader.” for “multireader at 37° C.”

T1 sequence (P22894 101-467): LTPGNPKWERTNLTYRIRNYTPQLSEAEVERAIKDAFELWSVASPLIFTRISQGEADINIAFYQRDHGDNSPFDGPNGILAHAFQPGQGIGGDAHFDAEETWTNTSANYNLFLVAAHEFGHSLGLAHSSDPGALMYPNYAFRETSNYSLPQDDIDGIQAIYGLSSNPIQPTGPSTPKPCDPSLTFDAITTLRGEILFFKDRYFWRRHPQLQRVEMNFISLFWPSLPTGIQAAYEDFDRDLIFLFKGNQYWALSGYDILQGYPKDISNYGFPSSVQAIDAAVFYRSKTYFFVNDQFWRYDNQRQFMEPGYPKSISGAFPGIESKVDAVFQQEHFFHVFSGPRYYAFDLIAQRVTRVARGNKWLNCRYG

IC50 (activated MMP-8 enzyme): 0.25 to 20 µM
IC50 [1]: 0.1 to 20 µM
IC50 [2]: 0.25 to 20 µM
SMILES: Cc1snc2sc3c(=O)[nH]c(C(=O)NCc4ccc5c(c4)NC(=O)CO5)nc3c12 [Example 39/7]
